Data reported in patent publication US5672715A, “Herbicidal substituted 3-aryl-pyrazoles” (Monsanto Company, priority 1995, dated 1997).
Read-outs that look alike come from different tables or passages of the source.

Key:
Format in all cases: in vivo
Yellow Foxtail [1] = experiment: pre-emergence herbicide test; settings: Setaria, read-out: % plant inhibition
Method in brief: (§1)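 Greenhouse pan assay in which seeds lie under a treated topsoil cover; carrier was acetone or water. Inhibition (%) was recorded about 14 days post-treatment.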

Corn [2] = experiment: pre-emergence herbicide test; settings: Zea mays, pre-emergence, read-out: % plant inhibition
Method in brief: as §1

Yellow Nutsedge [3] = experiment: pre-emergence herbicide test; settings: Cyperus, read-out: % plant inhibition
Method in brief: as §1

Soybean = experiment: pre-emergence herbicide test; settings: Glycine max, pre-emergence, read-out: % plant inhibition
Method in brief: as §1

Barnyardgrass = experiment: pre-emergence herbicide test; settings: Echinochloa crus-galli, pre-emergence, read-out: % plant inhibition
Method in brief: as §1

Cocklebur = experiment: pre-emergence herbicide test; settings: Xanthium strumarium, pre-emergence, read-out: % plant inhibition
Method in brief: as §1

Velvetleaf [4] = experiment: pre-emergence herbicide test; settings: Abutilon theophrasti, pre-emergence, read-out: % plant inhibition
Method in brief: as §1

Rice = experiment: pre-emergence herbicide test; settings: Oryza sativa, read-out: % plant inhibition
Method in brief: as §1

Morning Glory [5] = experiment: pre-emergence herbicide test; settings: Ipomoea, pre-emergence, read-out: % plant inhibition
Method in brief: as §1

Yellow Foxtail [6] = experiment: post-emergence herbicide test; settings: Setaria, read-out: % plant inhibition
Method in brief: (§2)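 Percent inhibition of each species scored after post-emergence spraying of two- to three-week-old greenhouse plants. Spray solution carried about 0.4% by volume emulsifier, delivered by atomizer at 170.3 kPa (10 psig) and 1870 L/Ha total volume.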

Corn [7] = experiment: post-emergence herbicide test; settings: Zea mays, post-emergence, read-out: % plant inhibition
Method in brief: as §2

Yellow Nutsedge [8] = experiment: post-emergence herbicide test; settings: Cyperus, read-out: % plant inhibition
Method in brief: as §2

Common Chickweed = experiment: post-emergence herbicide test; settings: post-emergence, read-out: % plant inhibition
Method in brief: as §2

Blackgrass = experiment: post-emergence herbicide test; settings: Alopecurus myosuroides, post-emergence, read-out: % plant inhibition; for inhibition at 7.95803 g/ha: 0.0071 lb/A; for inhibition at 40.0143 g/ha: 0.0357 lb/A; for inhibition at 200.072 g/ha: 0.1785 lb/A; for inhibition at 1000.92 g/ha: 0.893 lb/A
Method in brief: as §2

Velvetleaf [9] = experiment: post-emergence herbicide test; settings: Abutilon theophrasti, post-emergence, read-out: % plant inhibition
Method in brief: as §2

Morning Glory [10] = experiment: post-emergence herbicide test; settings: Ipomoea, post-emergence, read-out: % plant inhibition
Method in brief: as §2

C#CCOc1cc(-c2nn(C)c(C(F)(F)F)c2C)c(F)cc1Cl [Compound 39]
inhibition at 7.95803 g/ha (Yellow Foxtail [1]; 0.0071 lb/A): 95% | inhibition at 40.0143 g/ha (Yellow Foxtail [1]; 0.0357 lb/A): 100% | inhibition at 200.072 g/ha (Yellow Foxtail [1]; 0.1785 lb/A): 100% | inhibition at 280.212 g/ha (Yellow Foxtail [1]; 0.25 lb/A): 100% | inhibition at 1000.92 g/ha (Yellow Foxtail [1]; 0.893 lb/A): 100% | inhibition at 7.95803 g/ha (Corn [2]; 0.0071 lb/A): 10% | inhibition at 40.0143 g/ha (Corn [2]; 0.0357 lb/A): 80% | inhibition at 200.072 g/ha (Corn [2]; 0.1785 lb/A): 95% | inhibition at 280.212 g/ha (Corn [2]; 0.25 lb/A): 100% | inhibition at 1000.92 g/ha (Corn [2]; 0.893 lb/A): 100% | inhibition at 7.95803 g/ha (Yellow Nutsedge [3]; 0.0071 lb/A): 70% | inhibition at 40.0143 g/ha (Yellow Nutsedge [3]; 0.0357 lb/A): 25% | inhibition at 200.072 g/ha (Yellow Nutsedge [3]; 0.1785 lb/A): 55% | inhibition at 1000.92 g/ha (Yellow Nutsedge [3]; 0.893 lb/A): 65% | inhibition at 7.95803 g/ha (Soybean; 0.0071 lb/A): 0% | inhibition at 40.0143 g/ha (Soybean; 0.0357 lb/A): 100% | inhibition at 200.072 g/ha (Soybean; 0.1785 lb/A): 95% | inhibition at 280.212 g/ha (Soybean; 0.25 lb/A): 95% | inhibition at 1000.92 g/ha (Soybean; 0.893 lb/A): 100% | inhibition at 7.95803 g/ha (Barnyardgrass; 0.0071 lb/A): 80% | inhibition at 40.0143 g/ha (Barnyardgrass; 0.0357 lb/A): 100% | inhibition at 200.072 g/ha (Barnyardgrass; 0.1785 lb/A): 100% | inhibition at 280.212 g/ha (Barnyardgrass; 0.25 lb/A): 100% | inhibition at 1000.92 g/ha (Barnyardgrass; 0.893 lb/A): 100% | inhibition at 7.95803 g/ha (Cocklebur; 0.0071 lb/A): 50% | inhibition at 40.0143 g/ha (Cocklebur; 0.0357 lb/A): 80% | inhibition at 200.072 g/ha (Cocklebur; 0.1785 lb/A): 95% | inhibition at 1000.92 g/ha (Cocklebur; 0.893 lb/A): 100% | inhibition at 7.95803 g/ha (Velvetleaf [4]; 0.0071 lb/A): 100% | inhibition at 40.0143 g/ha (Velvetleaf [4]; 0.0357 lb/A): 100% | inhibition at 200.072 g/ha (Velvetleaf [4]; 0.1785 lb/A): 100% | inhibition at 1000.92 g/ha (Velvetleaf [4]; 0.893 lb/A): 100% | inhibition at 7.95803 g/ha (Rice; 0.0071 lb/A): 65% | inhibition at 40.0143 g/ha (Rice; 0.0357 lb/A): 70% | inhibition at 200.072 g/ha (Rice; 0.1785 lb/A): 85% | inhibition at 1000.92 g/ha (Rice; 0.893 lb/A): 100% | inhibition at 7.95803 g/ha (Morning Glory [5]; 0.0071 lb/A): 70% | inhibition at 40.0143 g/ha (Morning Glory [5]; 0.0357 lb/A): 85% | inhibition at 200.072 g/ha (Morning Glory [5]; 0.1785 lb/A): 100% | inhibition at 1000.92 g/ha (Morning Glory [5]; 0.893 lb/A): 100% | inhibition at 7.95803 g/ha (Yellow Foxtail [6]; 0.0071 lb/A): 65% | inhibition at 40.0143 g/ha (Yellow Foxtail [6]; 0.0357 lb/A): 100% | inhibition at 200.072 g/ha (Yellow Foxtail [6]; 0.1785 lb/A): 100% | inhibition at 1000.92 g/ha (Yellow Foxtail [6]; 0.893 lb/A): 100% | inhibition at 7.95803 g/ha (Corn [7]; 0.0071 lb/A): 50% | inhibition at 40.0143 g/ha (Corn [7]; 0.0357 lb/A): 30% | inhibition at 200.072 g/ha (Corn [7]; 0.1785 lb/A): 100% | inhibition at 1000.92 g/ha (Corn [7]; 0.893 lb/A): 95% | inhibition at 7.95803 g/ha (Yellow Nutsedge [8]; 0.0071 lb/A): 0% | inhibition at 40.0143 g/ha (Yellow Nutsedge [8]; 0.0357 lb/A): 40% | inhibition at 200.072 g/ha (Yellow Nutsedge [8]; 0.1785 lb/A): 10% | inhibition at 1000.92 g/ha (Yellow Nutsedge [8]; 0.893 lb/A): 30% | inhibition at 7.95803 g/ha (Common Chickweed; 0.0071 lb/A): 0% | inhibition at 40.0143 g/ha (Common Chickweed; 0.0357 lb/A): 100% | inhibition at 200.072 g/ha (Common Chickweed; 0.1785 lb/A): 100% | inhibition at 1000.92 g/ha (Common Chickweed; 0.893 lb/A): 100% | inhibition at 7.95803 g/ha (Blackgrass; Table 4a): 10% | inhibition at 7.95803 g/ha (Blackgrass; Table 5a): 0% | inhibition at 40.0143 g/ha (Blackgrass; Table 4a): 35% | inhibition at 40.0143 g/ha (Blackgrass; Table 5a): 80% | inhibition at 200.072 g/ha (Blackgrass; Table 4a): 25% | inhibition at 200.072 g/ha (Blackgrass; Table 5a): 95% | inhibition at 1000.92 g/ha (Blackgrass; Table 4a): 70% | inhibition at 1000.92 g/ha (Blackgrass; Table 5a): 100% | inhibition at 7.95803 g/ha (Velvetleaf [9]; 0.0071 lb/A): 75% | inhibition at 40.0143 g/ha (Velvetleaf [9]; 0.0357 lb/A): 100% | inhibition at 200.072 g/ha (Velvetleaf [9]; 0.1785 lb/A): 100% | inhibition at 1000.92 g/ha (Velvetleaf [9]; 0.893 lb/A): 100% | inhibition at 7.95803 g/ha (Morning Glory [10]; 0.0071 lb/A): 95% | inhibition at 40.0143 g/ha (Morning Glory [10]; 0.0357 lb/A): 80% | inhibition at 200.072 g/ha (Morning Glory [10]; 0.1785 lb/A): 100% | inhibition at 1000.92 g/ha (Morning Glory [10]; 0.893 lb/A): 95%
